Laboratory results reported in patent publication US9556207B2, “Pyrazole compounds, compositions and methods for treatment of degenerative diseases and disorders” (MUSC FOUNDATION FOR RESEARCH DEVELOPMENT, priority 2013, dated 2017).

What was measured:
661W or C6 cells [1] = experiment: MTT assay (protection against calcium-ionophore A23187); format: cell-based; conditions: for percent protection against ionophore-induced loss of MTT signal at 0.0008 µM: 800 pM compound; for percent protection against ionophore-induced loss of MTT signal at 0.001 µM: 1 nM compound; for percent protection against ionophore-induced loss of MTT signal at 0.01 µM: 10 nM compound
Procedure: The compound 3-(4,5-Dimethylthiazol-2-yl)-2,5-diphenyltetrazolium bromide (MTT) is a tetrazolium ion that is reduced to a blue formazan dye via several families of NAD(P)H-dependent oxidoreductases. Formation of the formazan dye from MTT or other related tetrazolium dyes are commonly used as a viability assay even though, in fact, the assay is a metabolic capacity assay.
In this assay, 661W or C6 cells were maintained in DMEM supplemented with 10% FBS. 100 μL of 70,000 cells/mL cells were seeded into each well of 96 well plates using DMEM supplemented with 5% FBS. Cells were then allowed to grow to confluency for 48 hours. The compounds of the invention were added in 2 μL media and calcium-ionophore A23187 was then added in 1 μL for a final concentration of 1 μM and after 24 h, 20 uL of 2 μg/mL MTT were added to each well and the cells were incubated for another 4 h after which 100 μL of 1% SDS in 0.01 M aqueous HCl were added to each well and the plates were incubated overnight. Absorbance was measured at […] (background correction). The 1 μM ionophore A23187 caused about 50% loss in MTT signal at 24 h. Protection was calculated as the increase in absorbance of treatment groups normalized to the vehicle control.

661W or C6 cells [2] = experiment: XF FCCP-uncoupled oxygen consumption rate assay (IBMX challenge); format: cell-based; conditions: 24 h; for activity at 0.1 µM: 100 nM compound; for activity at 0.01 µM: 10 nM compound
Procedure: XF FCCP-Uncoupled Oxygen Consumption Rate Assay
The XF FCCP-uncoupled oxygen consumption rate assay assesses mitochondrial capacity by measuring cellular respiration. It was shown that the maximum FCCP-uncoupled oxygen consumption rate (OCR) was a good estimate of maximal mitochondrial capacity (Beeson 2010) and that IBMX treatment of 661W or C6 cells for 24 h caused a loss in maximal uncoupled OCR (Perron 2013). Thus, cells were pretreated with the exemplified compounds for 1 h, added 600 μM IBMX and then measured the uncoupled rate after 24 h. The OCR measurements were performed using a Seahorse Bioscience XF instrument (Seahorse Bioscience, Billerica, Md.), as previously published (Perron 2013). O2 leakage through the plastic sides and bottom of the plate was accounted for using the AKOS algorithm in the XF software package. Cells were plated on 96- or 24-well custom plates designed for use in the XF and grown to confluency in DMEM+5% FBS (48 h). The medium was then replaced with DMEM+1% FBS for 24 h, along with any treatments.

[3] = test system: rd1 mouse retinal explants (photoreceptors); experiment: Retinal degeneration assay (rd1 mouse retina organ cultures); format: cell-based; conditions: explants cultured 11 days, rows of photoreceptors in ONL
From the text: Retinal Degeneration Assay
It was reasoned that the compounds' activities would enable them to protect against loss of photoreceptors in retinal degenerative animal models. As a translational bridge between the cell line-based assays and in vivo animal studies, mouse retina organ cultures were utilized. These retinal explants were a powerful ex vivo screening tool, which allowed the testing of photoreceptor cell survival within the retinal network, and the effects of a specific compound were tested like in an in vitro system, without systemic interference. In this assay, the rd1 mouse was utilized. The genotype of the rd1 mouse has a mutation in the β-subunit of the phosphodiesterase gene. […] The genetic deficit and the retinal pathology were very similar to that observed in the patients with βPDE-dependent RP. In these mice, rod photoreceptor degeneration started after postnatal day 10 (P10), progressing rapidly, such that at P21, only 1-2 rows of photoreceptor remained, mainly representing cones. Finally, the rd1 mouse retina was amenable to culturing, replicating both retinal development and degeneration, following the same time course as in vivo. […] At the end of the experiments, tissues were fixed, sectioned and stained with 0.1% toluidine and the numbers of rows of photoreceptors remaining in the outer nuclear layer (ONL) were counted.

[4] = test system: Balb/c mice photoreceptors; experiment: Light model assay (constant light damage, eyedrops); format: in vivo, mouse; conditions: 125 μM eyedrops once per day; continuous light 7 days; assessed 10 days after onset
From the text: The light model assay is generally accepted as a model of age related macular degeneration (AMD). […] In particular, oxidative damage has been detected by immunohistochemistry, detecting the presence of oxidized and tyrosine-phosphorylated proteins as well as the upregulation of endogenous antioxidants such as thioredoxin and glutathione peroxidase. […] Additional indirect evidence for the involvement of oxidative stress in photoreceptor degeneration has been provided by treatment of photodamaged retinas with antioxidants such as dimethylthiourea, or the treatment of N-methyl-N-nitrosourea (MNU)-challenged rats with the antioxidant DHA.
The light model assay was used to further test the therapeutic potential of the compounds of the invention. Photoreceptors from albino animals are very sensitive to constant light, lacking the RPE pigment to protect them. Thus, Balb/c mice were exposed to continuous light for 7 days, which caused loss of about 50% of the photoreceptor cells as measured via histology. To test the potential therapeutic efficacy, eyedrops were formulated in 0.1% Bij 35 in […], applied once or twice daily throughout the period of light exposure, and assessed their effect on the light-induced degeneration of photoreceptor cells morphologically and electrophysiologically, 10 days after the onset of the CL exposure.

[5] = 1 μM A23187, 24 h, read-out: MTT Protection(%, concentration)
[6] = 1 h pretreatment, 600 μM IBMX, read-out: XF FCCP OCR (% Ctrl, concentration)

In the case of `CCOC(=O)c1cc(-c2ccccn2)nn1CC(=O)c1ccc(OC)cc1OC` [Example 1, Ethyl 1-(2-(2,4-dimethoxyphenyl)-2-oxoethyl)-3-(pyridin-2-yl)-1H-pyrazole-5-carboxylate], the percent protection against ionophore-induced loss of MTT signal at 0.0008 µM (661W or C6 cells [1]; [5]) is reported as 10.4% and the activity at 1 µM (661W or C6 cells [2]; 1 uM compound, 1 h pretreatment, 600 μM IBMX, read-out: XF FCCP OCR (% Ctrl, concentration)) is reported as 58%.

`CCOC(=O)c1cc(-c2ccccn2)n(CC(=O)c2ccc(OC)cc2OC)n1` [Example 2, Ethyl 1-(2-(2,4-dimethoxyphenyl)-2-oxoethyl)-5-(pyridin-2-yl)-1H-pyrazole-3-carboxylate] was tested, and the percent protection against ionophore-induced loss of MTT signal at 0.0008 µM (661W or C6 cells [1]; [5]) was 73.9%, the activity at 0.1 µM (661W or C6 cells [2]; [6]) was 62% and the “rd1 protection (concentration, # of rows)” value ([3]; 20 nM) was 20 nM 4.46 # of rows.

With `CCOC(=O)c1cc(C(C)C)nn1Cc1c[nH]c2ccccc12` [Example 12, Ethyl 1-((1H-indol-3-yl)methyl)-3-isopropyl-1H-pyrazole-5-carboxylate] the percent protection against ionophore-induced loss of MTT signal at 0.001 µM (661W or C6 cells [1]; [5]) was 59.4%.

`CCOC(=O)c1cc([Si](C)(C)C)nn1CC(=O)c1cccnc1` [Example 10, Ethyl 1-(2-oxo-2-(pyridin-3-yl)ethyl)-3-(trimethylsilyl)-1H-pyrazole-5-carboxylate] gave a percent protection against ionophore-induced loss of MTT signal at 0.001 µM (661W or C6 cells [1]; [5]) of 47.8%.

For `CNc1ccc2oc(C[C@H]3O[C@@]4(CC[C@H]3C)O[C@H]([C@H](C)C(=O)c3ccc[nH]3)[C@H](C)C[C@H]4C)nc2c1C(=O)O` [Example A23187, reference compound], the “loss in MTT signal” value (661W or C6 cells [1]; 1 μM ionophore alone, 24 h) was “about 50%”.

For `CCOC(=O)c1cc(-c2cccnc2)nn1CC(=O)c1ccc(OC)cc1OC` [Example 8, Ethyl 1-(2-(2,4-dimethoxyphenyl)-2-oxoethyl)-3-(pyridin-3-yl)-1H-pyrazole-5-carboxylate], the percent protection against ionophore-induced loss of MTT signal at 0.001 µM (661W or C6 cells [1]; [5]) was 75.6% and the activity at 0.1 µM (661W or C6 cells [2]; [6]) was 64%.

With `CCOC(=O)c1cc(-c2cccnc2)nn1CC(=O)c1cc(OC)ccc1OC` [Example 3, Ethyl 1-(2-(2,5-dimethoxyphenyl)-2-oxoethyl)-3-(pyridin-3-yl)-1H-pyrazole-5-carboxylate] the percent protection against ionophore-induced loss of MTT signal at 0.001 µM (661W or C6 cells [1]; [5]) was 43.5%.

`CC(C)Cn1c(=O)n(C)c(=O)c2[nH]cnc21` [IBMX, reference compound] was tested, and the “decrease in the uncoupled rate (OCR)” value (661W or C6 cells [2]; IBMX treatment alone, 600 μM) was about 50%.

`CCOC(=O)c1cc([Si](C)(C)C)n(CC(=O)c2cccnc2)n1` [Example 9, Ethyl 1-(2-oxo-2-(pyridin-3-yl)ethyl)-5-(trimethylsilyl)-1H-pyrazole-3-carboxylate] showed a percent protection against ionophore-induced loss of MTT signal at 0.001 µM (661W or C6 cells [1]; [5]) of 59% and an activity at 0.1 µM (661W or C6 cells [2]; [6]) of 67%.

`CCOC(=O)c1cc([Si](C)(C)C)nn1CC(=O)c1ccc(OC)cc1OC` [Example 4, Ethyl 1-(2-(2,4-dimethoxyphenyl)-2-oxoethyl)-3-(trimethylsilyl)-1H-pyrazole-5-carboxylate] was tested, and the percent protection against ionophore-induced loss of MTT signal at 0.01 µM (661W or C6 cells [1]; [5]) was 87%, the activity at 0.01 µM (661W or C6 cells [2]; [6]) was 67% and the “rd1 protection (concentration, # of rows)” value ([3]; 10 nM) was 10 nM 3.2 # of rows. The “LD Protection (concentration, # of rows)” value [4] was 125 μM 6.42 # of rows.

`CCOC(=O)c1cc(-c2ccccn2)nn1CC(=O)c1cc(OC)ccc1OC` [Example 11, Ethyl 1-(2-(2,5-dimethoxyphenyl)-2-oxoethyl)-3-(pyridin-2-yl)-1H-pyrazole-5-carboxylate] showed a percent protection against ionophore-induced loss of MTT signal at 1 µM (661W or C6 cells [1]; 1 μM compound, 1 μM A23187, 24 h, read-out: MTT Protection(%, concentration)) of 28.3%.

Work on `CCOC(=O)c1cc(-c2ccccn2)nn1Cc1cccnc1` [Example 6, Ethyl 3-(pyridin-2-yl)-1-(pyridin-3-ylmethyl)-1H-pyrazole-5-carboxylate] yielded a percent protection against ionophore-induced loss of MTT signal at 0.01 µM (661W or C6 cells [1]; [5]) of 73.5% and an activity at 0.01 µM (661W or C6 cells [2]; [6]) of 75%.

`CCOC(=O)c1cc([Si](C)(C)C)nn1CC(=O)c1cc(OC)ccc1OC` [Example 5, Ethyl 1-(2-(2,5-dimethoxyphenyl)-2-oxoethyl)-3-(trimethylsilyl)-1H-pyrazole-5-carboxylate] showed a percent protection against ionophore-induced loss of MTT signal at 0.01 µM (661W or C6 cells [1]; [5]) of 76.6% and an activity at 0.01 µM (661W or C6 cells [2]; [6]) of 72%.

`CCOC(=O)c1cc([Si](C)(C)C)nn1Cc1cc(OC)c(OC)c(OC)c1` [Example 7, Ethyl 1-(3,4,5-trimethoxybenzyl)-3-(trimethylsilyl)-1H-pyrazole-5-carboxylate] showed a percent protection against ionophore-induced loss of MTT signal at 0.01 µM (661W or C6 cells [1]; [5]) of 40%.
